The subject of one test is L1210. The experiment in a line: Cytotoxicity against mouse L1210 cells. Type of test: functional, cell-based.
For another test, the system named is Staphylococcus aureus. The experiment in a line: Antimicrobial activity against Staphylococcus aureus at 100 ug/disk. Type of test: functional. The settings on record: read-out: IZ.

Converted amounts (≈) assume the structure as drawn.

`COC1=C(C)C(=O)c2ccnc(CO)c2C1=O` [RENIEROL]: inhibition in the test with L1210 was half-maximal at 3 µg/mL (≈ 12.9 µM) (IC50). The zone of inhibition at 100 µg/disc in the test on Staphylococcus aureus worked out at 10 mm.

Usually IC50 stands for the midpoint of a concentration-inhibition curve. A high value points to weaker potency in that assay.

For the origin of these results see ChEMBL document CHEMBL1150725, “Cytotoxic and antimicrobial alkaloids from the Fijian sponge Xestospongia caycedoi” (J Nat Prod, 1987).
